Data: patent US20110009394A1, “TRICYCLIC NITROGEN COMPOUNDS AND THEIR USE AS ANTIBACTERIAL AGENTS” (Glaxo Group Limited, priority 2008, published 2011)
Structures can show the parent of a compound that is named as a salt. Where two headings read alike, the source gives them in different places.

Test system: Mycobacterium tuberculosis H37Rv
Assay: Mycobacterium tuberculosis H37Rv Inhibition Assay
Type: cell-based
Conditions: ATCC 25618 / H37Rv, read-out: MIC value

O=C1CSc2ccc(CNC3CCN(CC4CCn5c(=O)cnc6ccc(=O)n4c65)CC3)nc2N1 (stereo not drawn) [Example 4, 6-[(4-{[(3-oxo-3,4-dihydro-2H-pyrido[3,2-b][1,4]thiazin-6-yl)methyl]amino}-1-piperidinyl)methyl]-5,6-dihydro-3H,4H,7H-1,3a,6a-triazaphenalene-3,7-dione dihydrochloride]
MIC: < 400 µg/mL

O=c1cnc2ccc(=O)n3c2n1CCC3CN1CCC(NCc2cc3c(cn2)OCS3)CC1 (stereo not drawn) [Example 2, 6-({4-[([1,3]Oxathiolo[5,4-c]pyridin-6-ylmethyl)amino]-1-piperidinyl}methyl)-5,6-dihydro-3H,4H,7H-1,3a,6a-triazaphenalene-3,7-dione dihydrochloride]
MIC: > 4 µg/mL

Cl.O=c1cnc2ccc(=O)n3c2n1CC[C@H]3CN1CCC(NCc2ccc3c(c2)OCCO3)CC1 [Example 17B, (6S)-6-({4-[(2,3-Dihydro-1,4-benzodioxin-6-ylmethyl)amino]-1-piperidinyl}methyl)-5,6-dihydro-3H,4H,7H-1,3a,6a-triazaphenalene-3,7-dione hydrochloride]
MIC (H37Rv strain (ATCC25618), Middlebrook 7H9+ADC, resazurin fluorescence): < 4 µg/mL

N#Cc1cc(CNC2CCN(C[C@@H]3CCn4c(=O)cnc5ccc(=O)n3c54)CC2)cc2c1OCCO2 [Example 15, 7-{[(1-{[(6S)-3,7-Dioxo-5,6-dihydro-3H,4H,7H-1,3a,6a-triazaphenalen-6-yl]methyl}-4-piperidinyl)amino]methyl}-2,3-dihydro-1,4-benzodioxin-5-carbonitrile dihydrochloride]
MIC: < 4 µg/mL

O=c1cnc2ccc(=O)n3c2n1CC[C@H]3CN1CCC(NCc2cc3c(cc2F)OCCO3)CC1 [Example 16, (6S)-6-[(4-{[(7-Fluoro-2,3-dihydro-1,4-benzodioxin-6-yl)methyl]amino}-1-piperidinyl)methyl]-5,6-dihydro-3H,4H,7H-1,3a,6a-triazaphenalene-3,7-dione dihydrochloride]
MIC: > 4 µg/mL

O=c1cnc2ccc(=O)n3c2n1CCC3CN1CCC(NCc2cc3c(cn2)OCCO3)CC1 (stereo not drawn) [Example 1, 6-([4-[(2,3-Dihydro[1,4]dioxino[2,3-c]pyridin-7-ylmethyl)amino]-1-piperidinyl]methyl)-5,6-dihydro-3H,4H,7H-1,3a,6a-triazaphenalene-3,7-dione dihydrochloride]
MIC: > 4 µg/mL

O=c1ccc2ncc(=O)n3c2n1CC[C@H]3CN1CCC(NCc2cc3c(cn2)OCCS3)CC1 [Example 9, (4S)-4-({4-[(2,3-Dihydro[1,4]oxathiino[2,3-c]pyridin-7-ylmethyl)amino]-1-piperidinyl}methyl)-5,6-dihydro-3H,4H,7H-1,3a,6a-triazaphenalene-3,7-dione dihydrochloride]
MIC: > 4 µg/mL

O=c1ccc2ccc(=O)n3c2n1CCC3CN1CCC(NCc2cc3c(cn2)OCS3)CC1 (stereo not drawn) [Example 11, 5-({4-[([1,3]Oxathiolo[5,4-c]pyridin-6-ylmethyl)amino]-1-piperidinyl}methyl)-6,7-dihydro-3H,5H,9H-pyrimido[1,2,3-ij]-1,8-naphthyridine-3,9-dione dihydrochloride]
MIC: < 4 µg/mL

O=c1ccc2ncc(=O)n3c2n1CCC3CN1CCC(NCc2cc3c(cn2)OCS3)CC1 (stereo not drawn) [Example 8, 4-({4-[([1,3]Oxathiolo[5,4-c]pyridin-6-ylmethyl)amino]-1-piperidinyl}methyl)-5,6-dihydro-3H,4H,7H-1,3a,6a-triazaphenalene-3,7-dione dihydrochloride]
MIC: > 4 µg/mL
